Legend:
Assay in all cases: Protection of tissue from cytopathic effects (plaque inhibition, filter paper disc or agar overlay)
Conditions in all cases: 33°, 3 to 5 days
[1] = test system: Rhinovirus strain 2
[2] = test system: Rhinovirus strain 23; also: test concentration or dose not given here
[3] = test system: Rhinovirus strain 1B
[4] = test system: Rhinovirus strain 5; also: test concentration or dose not given here
[5] = test system: Rhinovirus strain 14

Measured: Protection of tissue from destruction by virus

N=C(Nc1cccc(Cl)c1)Nc1nc(-c2ccccc2)cs1 [1-(4-phenyl-2-thiazolyl)-3-(3-chlorophenyl) guanidine]
+: [1]

N=C(Nc1ccc(C(=O)O)cc1)Nc1nc(-c2ccccc2)cs1 [1-(4-phenyl-2-thiazolyl)-3-(4-carboxyphenyl) guanidine]
+: all assays above

N=C(Nc1ccc(F)cc1)Nc1nc(-c2ccccc2)cs1 [1-(4-phenyl-2-thiazolyl)-3-(4-fluorophenyl) guanidine]
+: [1] | [3] | [4]

Cc1ccc(NC(=N)Nc2nc(-c3ccccc3)cs2)cc1 [1-(4-phenyl-2-thiazolyl)-3-(p-tolyl)guanidine]
+: all assays above

COC(=O)c1ccc(NC(=N)Nc2nc(-c3ccccc3)cs2)cc1 [1-(4-phenyl-thiazolyl)-3-(4-carbomethoxyphenyl)-guanidine]
+: [2] | [1]

Cc1ccc(NC(=N)Nc2nc(-c3ccc(Cl)cc3)cs2)cc1 [1-[4-(4-chlorophenyl)-2-thiazolyl-3-(p-tolyl)guanidine]]
+: [1] | [3]

From patent US4089965A, “Thiazolylphenylguanidines as antirhinovirus agents” (American Cyanamid Company, priority 1977, dated 1978)
